Target: CRBN (human cereblon) (Homo sapiens, UniProt Q96SW2)
Test: HTRF human cereblon binding kit (competition)

IC50: 150 nM
Compound: CC1(C)[C@H](NC(=O)c2ccc(N3CCN(CCCSc4ccc5c(c4)CN(C4CCC(=O)NC4=O)C5=O)CC3)nc2)C(C)(C)[C@H]1Oc1ccc(C#N)c(Cl)c1 (stereo partly shown) [GT19, PROTAC GT19]

From doi:10.1101/2025.02.26.640266v1, “Predicting PROTAC-targeted Degradation and Designing Androgen Receptor Degraders with AiPROTAC” (biorxiv, 2025)
